In patent publication US20100144788A1 (priority 2007, published 2010):

Tests used:
[1] = Hydrate formation when precipitated from water; type: physicochemical
Excerpt: Crystals used in the present invention may exist as solvates, i.e. crystals wherein solvent molecules form part of the crystal structure. The solvate may be formed from water, in which case the solvates are often referred to as hydrates. Alternatively, the solvates may be formed from other solvents, such as e.g. ethanol, acetone, or ethyl acetate. The exact amount of solvate often depends on the conditions. For instance, hydrates will typically loose water as the temperature is increased or as the relative humidity is decreased.

NET = target: T1, NET (Rattus norvegicus, UniProt Q9WTR4); assay: Norepinephrine (NE) reuptake inhibition, rat cortical synaptosomes, [3H]NE; type: biochemical; settings: [3H]NE 10 nM
T1 construct: rat cortical synaptosome preparation; from tissue; host or cells: rat cortical synaptosomes
T1 sequence (Q9WTR4 1-597): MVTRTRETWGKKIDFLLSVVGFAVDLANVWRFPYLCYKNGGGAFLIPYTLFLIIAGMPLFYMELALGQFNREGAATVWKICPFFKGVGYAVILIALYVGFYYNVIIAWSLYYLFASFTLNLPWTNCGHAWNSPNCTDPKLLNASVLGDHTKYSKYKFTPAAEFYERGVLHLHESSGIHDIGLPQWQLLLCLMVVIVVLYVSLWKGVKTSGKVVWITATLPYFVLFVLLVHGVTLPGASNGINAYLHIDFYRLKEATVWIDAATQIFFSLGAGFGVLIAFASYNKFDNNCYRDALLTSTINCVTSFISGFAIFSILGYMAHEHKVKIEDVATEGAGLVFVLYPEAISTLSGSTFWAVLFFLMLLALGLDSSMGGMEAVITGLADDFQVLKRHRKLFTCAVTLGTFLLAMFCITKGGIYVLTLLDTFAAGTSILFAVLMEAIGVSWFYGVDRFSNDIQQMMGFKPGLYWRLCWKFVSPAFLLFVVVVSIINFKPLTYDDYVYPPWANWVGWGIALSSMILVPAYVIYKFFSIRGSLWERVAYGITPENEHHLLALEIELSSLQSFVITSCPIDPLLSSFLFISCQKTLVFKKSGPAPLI
Procedure: Non-specific uptake was determined in the presence of 10 μM talsupram or citalopram and the total uptake was determined in the presence of buffer. Aliquots were incubated for 15 minutes at 37° C. […] Filters were washed and counted in a Wallac MicroBeta counter.

[2] = tested on: extracellular levels of acetylcholine; assay: Microdialysis, extracellular acetylcholine in prefrontal cortex and ventral hippocampus of Sprague-Dawley rats (Example 2G); type: in vivo, rat
Procedure: Male Sprague-Dawley rats, initially weighing 275-300 g, were used. The animals were housed under a 12-hr light/dark cycle under controlled conditions for regular in-door temperature (21±2° C.) and humidity (55±5%) with food and tap water available ad libitum.
Rats were anaesthetised with hypnorm/dormicum (2 ml/kg) and intracerebral guide cannulas (CMA/12) were stereotaxically implanted into the hippocampus, aiming to position the dialysis probe tip in the ventral hippocampus (co-ordinates: 5,6 mm posterior to bregma, lateral −5,0 mm, 7,0 mm ventral to dura or in the frontal cortex (co-ordinates: 3,2 mm anterior to bregma; lateral, 0,8 mm; 4,0 mm ventral to dura). Anchor screws and acrylic cement were used for fixation of the guide cannulas. The body temperature of the animals was monitored by rectal probe and maintained at 37° C. The rats were allowed to recover from surgery for 2 days, housed singly in cages. […]
Concentration of acetylcholine (ACh) in the dialysates was analysed by means of HPLC with electrochemical detection using a mobile phase consisting of 100 mM disodium hydrogenphosphate, 2.0 mM octane sulfonic acid, 0.5 mM tetramethyl-ammonium chloride and 0.005% MB (ESA), pH 8.0. […] The latter was detected electrochemical by using a platinum electrode (Analytical cell: ESA, model 5040). […]

[3] = target: T2, human alpha1A-7 receptors (Homo sapiens, UniProt P35348); assay: Antagonism of adrenaline evoked release of Ca2+ in CHO cells expressing human alpha1A-7 receptors (FLIPR); type: cell-based; settings: functional assay
T2 construct: expressed in transfected cells; host or cells: CHO cells
T2 sequence (P35348 1-466): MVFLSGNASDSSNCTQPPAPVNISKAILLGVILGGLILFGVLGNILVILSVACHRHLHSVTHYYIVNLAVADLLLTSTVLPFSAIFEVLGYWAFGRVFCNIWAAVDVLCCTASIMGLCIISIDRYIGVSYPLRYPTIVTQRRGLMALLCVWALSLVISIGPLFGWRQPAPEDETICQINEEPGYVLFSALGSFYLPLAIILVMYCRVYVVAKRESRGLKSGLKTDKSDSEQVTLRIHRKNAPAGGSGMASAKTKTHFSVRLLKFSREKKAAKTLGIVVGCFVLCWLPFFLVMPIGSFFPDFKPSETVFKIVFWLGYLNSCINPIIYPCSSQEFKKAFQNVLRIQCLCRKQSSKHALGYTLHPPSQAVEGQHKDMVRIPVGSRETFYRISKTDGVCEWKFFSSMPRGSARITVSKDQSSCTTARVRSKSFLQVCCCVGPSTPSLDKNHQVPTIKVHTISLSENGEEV
Procedure: These experiments were carried out essentially as described below. All cells were cultured in DMEM medium supplemented with 10% BCS, 4 mM L-glutamine (or 2 mM in the case of COS-7), and 100 units/ml penicillin plus 100 μg/ml streptomycin, at 37° C., in 5% CO2. Twenty-four hours prior to assays, CHO cells expressing the human alpha1A-7 receptors were seeded into 384-well black wall microtiter plates coated with poly-D-lysine. […] After excess dye was discarded, cells were washed in assay buffer and layered with a final volume equal to 45 μl/well (or 30 ul/well for antagonist assay). […] Basal fluorescence was monitored in a fluorometric imaging plate reader or FLIPR™ from Molecular Devices (Sunnyvale, Calif.) with an excitation wavelength of 488 nm and an emission range of 500 to 560 nm. Laser excitation energy was adjusted so that basal fluorescence readings were approximately 8,000 relative fluorescent units (RFU). Cells were then stimulated at room temperature with agonists diluted in assay buffer (15 μl), and RFU were measured at 1.5 second intervals over a period of 2.5 min. Maximum change in fluorescence was calculated for each well. Concentration-response curves derived from the maximum change in fluorescence were analyzed by nonlinear regression (Hill equation).

[4] = tested on: Spontaneously hypertensive rats (SHR); assay: Spontaneously hypertensive rats, animal model of ADHD: operant task with delayed food-reward and circadian activity recording; type: in vivo, rat
Procedure: Core symptoms of ADHD are attention deficit, hyperactivity and increased impulsiveness. Spontaneously hypertensive rats (SHR) were used as animal model for attention deficit hyperactivity disorder (ADHD), Wistar Kyoto rats (the root strain of SHR) served as controls [Biol. Psychiatry. 57, 1239-47, 2005]. To assess these symptoms, an operant task involving a delayed food-reward was used to measure attention- and impulsiveness-related parameters. Attention deficits were measured as increase in the number of lever presses on the wrong side. Impulsiveness was measured as lever presses and reward chamber inspections during the OFF state in test sessions without delayed reward and during the delay interval in the test sessions with delayed rewarding. Hyperactivity was monitored by circadian recording in infra-red cages.
Methods: Operant testing was performed in 20 hours sessions, each in operant behaviour cages with two levers and adjacent reward chambers on the right and left side of the lever panel. The animals had access to food only via lever presses, and fluid was freely available. Training and testing consisted of the following phases:
• (1) Both levers were continuously active (indicated by a signal light). […] The signal light on the correct side indicated the state of the lever (ON or OFF).
• (1) Like Acquisition (3) • (2) Like (1), except that after a lever press of an active lever, the reward was not presented immediately, but after a delay interval of 5 seconds.

[5] = tested on: extracellular levels of acetylcholine; assay: Microdialysis, extracellular acetylcholine in prefrontal cortex of freely-moving Wistar rats (Example 2F); type: in vivo, rat; settings: s.c.
Procedure: Male Wistar rats (280-350 g; Harlan, Zeist, The Netherlands) were used for the experiments. Rats were individually housed in plastic cages (30×30×40 cm) and had ad libitum access to food and water.
Rats were anesthetized using isoflurane (2%, 400 mL/min N2O, 400 ml/min O2). Lidocain (10% m/v) was used for local anesthesia. Each animal was placed into a stereotaxic frame (Kopf instruments, USA), and home-made I-shaped probes (Hospal AN 69 membrane, 4 mm exposed surface) were inserted into the medial prefrontal cortex (mPFC) using the rat brain atlas of Paxinos and Watson (1982). Coordinates for the tip of the probe was mPFC [AP=3.4 mm, L=−0.8 mm, V=5.0 mm]. The probe was then fixed to the skull with dental cement and a srew. Flunixin (1 mg/kg s.c.) was administered as post-operative analgesic.
Experiments were carried out 24-48 hours after surgery. […] Samples were collected by an automated fraction collector (CMA 142), and stored at −80° C. until analyzed. […]
Concentrations of acetylcholine were determined by HPLC with tandem mass spectrometry (MS/MS) detection. […]
The LC/MS analyses were performed using a API 4000 MS/MS system consisting of a API 4000 MS/MS detector and a Turbo Ion Spray interface (both from Applied Biosystems, the Netherlands). […] Data were calibrated and quantitated using the Analyst™ data system (Applied Biosystem, version 1.2). […]

[6] = Solubility of salts in water with pH of the saturated solution and identity of the precipitate
[7] = SHR rats, 5 and 10 mg/kg i.p., injected 30 min before testing
[8] = SHR, methylphenidate 2 and 5 mg/kg i.p. intermittent, ~10 mg/kg/day chronic via drinking water

## Br.Cc1ccc(Sc2ccccc2C2CCNCC2)cc1 [HBr, 4-(2-p-Tolylsulfanyl-phenyl)-piperidine hydrobromide]
[1]
  formation of hydrates: does not form hydrates

## Cc1ccc(Sc2ccccc2C2CCNCC2)cc1 [compound I, 4-[2-(4-methylphenylsulfanyl)-phenyl]piperidine]
NET
  IC50: 23 nM
[2]
  extracellular level of acetylcholine: increase
[3]
  adrenaline evoked release of Ca2+ from intracellular stores: antagonises
[4]; SHR rats, 5 and 10 mg/kg i.p.
  acquisition of the task or general motivation of food seeking: did not affect
[4]; [7]
  attention deficits: reduced
  impulsiveness: reduced
[4]; SHR rats, 5 and 10 mg/kg i.p., circadian activity monitoring, for 1 hour without prolonged effects
  hyperactivity - locomotor activity: dose-dependently depressed
[5]
  extracellular level of acetylcholine: increase

## Cc1ccc(Sc2ccccc2C2CCNCC2)cc1
[1]
  formation of hydrates: do

## O=C(O)CCCC(=O)O [Glutaric acid, 1,5-pentanedioic acid 1:1]
[6]; pH in the saturated solution of the salt in water
  Resulting pH: 4.6
[6]; whether precipitate isolated after the solubility determination is identical to the compound dissolved, indicative of hydrate formation
  Precipitate: =start

## O=C(O)CCC(=O)O [Succinic acid, 1,4-butanedioic acid, 2:1]
[1]
  formation of hydrates: do

## COC(=O)C(c1ccccc1)C1CCCCN1 (centres unmarked) [Methylphenidate, reference compound]
[4]; [8]
  attention deficit: no reduction
  impulsiveness: no reduction
[4]; chronic administration via drinking water, ~10 mg/kg/day
  time course of activity: did not alter
[4]; intermittent administration, 2 and 5 mg/kg i.p., effect lasted a few hours
  hyperactivity of SHR: markedly and dose-dependently aggravated
